# Values of other authors, collected in patent US20030143648A1, “Enzyme activity profiles” (priority 2001, published 2003).
# System: FAAH
# Conditions: pH 8.0
structure (smiles),measurement,value
CCCCCCCC/C=C\CCCCCCCC(N)=O [oleamide],kcat of FAAH for oleamide,approximately 2 s −^1
